Source: US4125610A, “Antibacterial compositions” (priority 1977, dated 1978)
Values after ≈ are worked out from the molar mass of the structure shown. Read-outs that look alike come from different tables or passages of the source.

Experiments:
[1] = test system: K. pneumoniae A9977; assay: animal or person; type: in vivo, mice; details: Klebsiella pneumoniae, A9977, in Mus musculus, po, read-out: PD50 /treatment
[2] = test system: S. pyogenes A9604; assay: animal or person; type: in vivo, mice; details: Streptococcus pyogenes, A9604, in Mus musculus, po, read-out: PD50 /treatment
[3] = laboratory animals, cited from earlier work
[4] = test system: Histoplasma capsulatum; details: mouse, in vivo, iv; cited from earlier work
[5] = test system: Ps. fluorescens; details: in vivo; cited from earlier work
[6] = test system: Plasmodium berghei; details: in vivo; cited from earlier work
[7] = test system: S. typhosa; details: in vivo; cited from earlier work
[8] = test system: A20119; assay: Antibacterial activity, MIC by twofold broth dilution (Table 1), organism name not given; type: cell-based
Procedure: (§1) *The MIC's were determined by the twofold broth dilution method following
(§2) overnight incubation at 37° C in Meuller-Hinton Broth containing 2
(§3) lysed defibrinated horse blood and using 10^-4 dilutions of overnight
(§4) broth cultures (10^-3 dilutions of Staph. aureus strains A9606 and
(§5) A15097) as inocula at the rate of 0.5 ml of inoculum per 0.5 ml of […]

[9] = test system: Staph. aureus; assay: microbe, parasite or virus in culture; type: cell-based
Procedure: as §1, §2, §3, §4, §5

[10] = test system: Ent. cloacae; assay: microbe, parasite or virus in culture; type: cell-based; details: Enterobacter cloacae
Procedure: as §1, §2, §3, §4, §5

[11] = test system: Kl. pneumoniae; assay: microbe, parasite or virus in culture; type: cell-based; details: Klebsiella pneumoniae
Procedure: as §1, §2, §3, §4, §5

[12] = test system: Ps. aeruginosa; assay: microbe, parasite or virus in culture; type: cell-based; details: Pseudomonas aeruginosa
Procedure: as §1, §2, §3, §4, §5

[13] = test system: Pr. mirabilis; assay: microbe, parasite or virus in culture; type: cell-based
Procedure: as §1, §2, §3, §4, §5

[14] = test system: E. coli; assay: microbe, parasite or virus in culture; type: cell-based; details: Escherichia coli
Procedure: as §1, §2, §3, §4, §5

[15] = test system: a variety of bacterial species; details: cited from earlier work
[16] = test system: experimental tuberculosis; details: cited from earlier work
[17] = test system: P. mirabilis A9900; assay: animal or person; type: in vivo, mice; details: Proteus mirabilis, A9900, in Mus musculus, po
[18] = test system: S. aureus A9537; assay: animal or person; type: in vivo, mice; details: Staphylococcus aureus, A9537, in Mus musculus, po
[19] = test system: experimental tuberculosis; details: cited from earlier work; remark: listed apart in the source
[20] = test system: E. coli A15119; assay: animal or person; type: in vivo, mice; details: Escherichia coli, A15119, in Mus musculus, po, read-out: PD50 /treatment
[21] = test system: Staph. aureus; assay: microbe, parasite or virus in culture; type: cell-based; details: Staphylococcus aureus, read-out: Geometric Mean MIC
Procedure: (§6) The geometric mean MIC's were determined from MIC's obtained in two separate tests of each of the strains of Staphylococcus and Proteus, and three separate tests for each of the other organisms.

[22] = test system: Pr. rettgeri; assay: microbe, parasite or virus in culture; type: cell-based; details: Providencia rettgeri
Procedure: as §6

[23] = test system: Ent. cloacae; assay: microbe, parasite or virus in culture; type: cell-based; details: Enterobacter cloacae; remark: listed apart in the source
Procedure: as §6

[24] = test system: Kl. pneumoniae; assay: microbe, parasite or virus in culture; type: cell-based; details: Klebsiella pneumoniae; remark: listed apart in the source
Procedure: as §6

[25] = test system: Pr. mirabilis; assay: microbe, parasite or virus in culture; type: cell-based; details: Proteus mirabilis
Procedure: as §6

[26] = test system: E. coli; assay: microbe, parasite or virus in culture; type: cell-based; details: Escherichia coli; remark: listed apart in the source
Procedure: as §6

[27] = test system: Pr. vulgaris; assay: microbe, parasite or virus in culture; type: cell-based; details: for MIC: Proteus vulgaris
Procedure: as §6

[28] = test system: Pr. morganii; assay: microbe, parasite or virus in culture; type: cell-based; details: Morganella morganii
Procedure: as §6

## Nc1ccc(P(=O)(O)O)cc1 [P, p-aminophenylphosphonic acid]
[1]; 54 h
  ED50: > 400 mg/kg
[1]
  ED50: > 400 mg/kg
[2]
  ED50: > 400 mg/kg
[3]; blood level studies
  absorption: poor absorption
[3]
  toxicity: low toxicity
[4]
  protective effect: some protective effect
[5]
  efficacy in infected mice: effective in vivo
[6]
  efficacy in infected mice: effective in vivo
[7]
  efficacy in infected mice: effective in vivo
[8]
  MIC: > 125 µg/mL
[9]; Staphylococcus aureus
  MIC: > 125 µg/mL
[9]; strain A15097, 10^-3 dilution inoculum
  MIC: > 125 µg/mL
[9]; strain A-9606, 10^-3 dilution inoculum
  MIC: > 125 µg/mL
[10]; strain A-9656
  MIC: > 125 µg/mL
[10]; strain A-9657
  MIC: 63 µg/mL (≈ 364 µM)
[10]; strain A-9659
  MIC: > 125 µg/mL
[11]
  MIC: > 125 µg/mL
[11]; strain A15130
  MIC: > 125 µg/mL
[11]; strain A20468
  MIC: > 125 µg/mL
[12]; strain A15151
  MIC: 1 µg/mL (≈ 5.78 µM)
[12]; strain A20126
  MIC: 16 µg/mL (≈ 92.4 µM)
[12]; strain A20227
  MIC: 1 µg/mL (≈ 5.78 µM)
[12]; strain A20229
  MIC: 63 µg/mL (≈ 364 µM)
[12]; strain A20543
  MIC: 16 µg/mL (≈ 92.4 µM)
[12]; strain A20574
  MIC: 1 µg/mL (≈ 5.78 µM)
[12]; strain A20602
  MIC: 125 µg/mL (≈ 722 µM)
[12]; strain A-9843a
  MIC: 4 µg/mL (≈ 23.1 µM)
[12]; strain A-9925
  MIC: 16 µg/mL (≈ 92.4 µM)
[13]; Proteus mirabilis
  MIC: > 125 µg/mL
[13]; Proteus mirabilis, strain A-9696
  MIC: > 125 µg/mL
[14]
  MIC: > 125 µg/mL
[14]; strain A15119
  MIC: > 125 µg/mL
[14]; strain A-9671
  MIC: > 125 µg/mL
[15]; molar basis
  in vitro activity compared with sulfathiazole: approached that of sulfathiazole
[15]; relative to the compounds tested
  in vitro activity: generally the most active of the compounds tested
[16]
  tubercularstatic activity in vitro: good tubercularstatic activity in vitro
[17]; read-out: PD50 /treatment, oral, mice, challenge 6×10^6, 0 and 2 hr post-challenge
  ED50: > 200 mg/kg
[17]; read-out: PD50 /treatment, oral, mice, challenge 8×10^6, 0 and 2 hr post-challenge (1st P. mirabilis line)
  ED50: > 800 mg/kg
[17]; read-out: PD50 /treatment, oral, mice, challenge 8×10^6, 0 and 2 hr post-challenge (3rd P. mirabilis line)
  ED50: > 200 mg/kg
[18]; read-out: PD50 /treatment
  ED50: > 400 mg/kg
[18]; read-out: PD50 /treatment, oral, mice, challenge 1×10^5, 0 and 4 hr post-challenge
  ED50: > 100 mg/kg
[19]
  effect in vivo: no effect in vivo
[20]; 3 h
  ED50: > 400 mg/kg
[20]
  ED50: > 400 mg/kg
[21]
  MIC: > 109 µg/mL
[22]; read-out: Geometric Mean MIC, 1 strain (1st Pr. rettgeri line)
  MIC: 0.5 µg/mL (≈ 2.89 µM)
[22]; read-out: Geometric Mean MIC, 1 strain (2nd Pr. rettgeri line)
  MIC: > 125 µg/mL
[23]; read-out: Geometric Mean MIC, 1 strain (1st Ent. cloacae line)
  MIC: 8 µg/mL (≈ 46.2 µM)
[23]; read-out: Geometric Mean MIC, 1 strain (3rd Ent. cloacae line)
  MIC: > 125 µg/mL
[23]; read-out: Geometric Mean MIC, 2 strains (4th Ent. cloacae line)
  MIC: 63 µg/mL (≈ 364 µM)
[23]; read-out: Geometric Mean MIC, 3 strains (2nd Ent. cloacae line)
  MIC: 20 µg/mL (≈ 116 µM)
[24]; read-out: Geometric Mean MIC, 1 strain (2nd Kl. pneumoniae line)
  MIC: 40 µg/mL (≈ 231 µM)
[24]; read-out: Geometric Mean MIC, 1 strain (4th Kl. pneumoniae line)
  MIC: > 125 µg/mL
[24]; read-out: Geometric Mean MIC, 2 strains (3rd Kl. pneumoniae line)
  MIC: 40 µg/mL (≈ 231 µM)
[24]; read-out: Geometric Mean MIC, 5 strains (1st Kl. pneumoniae line)
  MIC: 18 µg/mL (≈ 104 µM)
[25]; read-out: Geometric Mean MIC, 1 strain (3rd Pr. mirabilis line)
  MIC: 11.3 µg/mL (≈ 65.3 µM)
[25]; read-out: Geometric Mean MIC, 1 strain (4th Pr. mirabilis line)
  MIC: 16 µg/mL (≈ 92.4 µM)
[25]; read-out: Geometric Mean MIC, 2 strains (2nd Pr. mirabilis line)
  MIC: > 105 µg/mL
[25]; read-out: Geometric Mean MIC, 4 strains (1st Pr. mirabilis line)
  MIC: 7.3 µg/mL (≈ 42.2 µM)
[26]; read-out: Geometric Mean MIC, 1 strain (1st E. coli line)
  MIC: 6.4 µg/mL (≈ 37 µM)
[26]; read-out: Geometric Mean MIC, 2 strains (2nd E. coli line)
  MIC: 18 µg/mL (≈ 104 µM)
[26]; read-out: Geometric Mean MIC, 2 strains (3rd E. coli line)
  MIC: > 125 µg/mL
[26]; read-out: Geometric Mean MIC, 4 strains (4th E. coli line)
  MIC: 20 µg/mL (≈ 116 µM)
[27]; read-out: Geometric Mean MIC, 1 strain (first listed Pr. vulgaris)
  MIC: > 125 µg/mL
[27]; read-out: Geometric Mean MIC, 2 strains (2nd Pr. vulgaris line)
  MIC: 8 µg/mL (≈ 46.2 µM)
[27]; first listed strain of Pr. vulgaris
  component in the 16:1 mixture at its MIC as % of its individual MIC: < 3.0%
[27]; first listed strain of Pr. vulgaris, 16:1 mixture at its MIC
  amount of component in 4 μg/ml of the 16:1 mixture: 3.76 µg/mL
[28]; read-out: Geometric Mean MIC, 1 strain (1st Pr. morganii line)
  MIC: > 125 µg/mL
[28]; read-out: Geometric Mean MIC, 2 strains (2nd Pr. morganii line)
  MIC: 11.3 µg/mL (≈ 65.3 µM)

## COc1cc(Cc2cnc(N)nc2N)cc(OC)c1OC [T, 2,4-diamino-5-(3',4',5'-trimethoxybenzyl)pyrimidine]
[1]; 54 h
  ED50: 348 mg/kg
[2]
  ED50: > 400 mg/kg
[8]
  MIC: 16 µg/mL (≈ 55.1 µM)
[9]; Staphylococcus aureus
  MIC: 0.25 µg/mL (≈ 0.861 µM)
[13]
  MIC: 4 µg/mL (≈ 13.8 µM)
[13]; Proteus mirabilis
  MIC: 2 µg/mL (≈ 6.89 µM)
[17]; read-out: PD50 /treatment
  ED50: > 200 mg/kg
[20]; 3 h
  ED50: 200 mg/kg
[20]
  ED50: 262 mg/kg
[21]
  MIC: 0.5 µg/mL (≈ 1.72 µM)
[27]
  Geometric Mean MIC: 0.6 µg/mL
  amount of component in 4 μg/ml of the 16:1 mixture: 0.235 µg/mL
  component in the 16:1 mixture at its MIC as % of its individual MIC: 23%
[27]; read-out: Geometric Mean MIC
  MIC: 1 µg/mL (≈ 3.44 µM)
